Measurements published in PubChem BioAssay (NCI).
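Growth conditions: 96-well plates. Treatment: test compound, 48 hours, 5 concentrations. Analysis: linear interpolation between bracketing concentrations; unreached endpoints set to highest concentration. TGI denotes the concentration required for complete inhibition of growth.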

Tests used:
Assay in all cases: DTP human tumour cell line panel, 48 h
SR leukemia = tested on: SR leukemia
U251 CNS = tested on: U251 CNS
SNB-19 CNS = tested on: SNB-19 CNS
UACC-257 melanoma = tested on: UACC-257 melanoma
MDA-MB-231 breast = tested on: MDA-MB-231 breast
SK-OV-3 ovarian = tested on: SK-OV-3 ovarian
MCF7 breast = tested on: MCF7 breast
MDA-N = tested on: MDA-N
A549 NSCLC = tested on: A549 NSCLC
OVCAR-3 ovarian = tested on: OVCAR-3 ovarian
MOLT-4 leukemia = tested on: MOLT-4 leukemia
HCT-15 colon = tested on: HCT-15 colon
RPMI-8226 leukemia = tested on: RPMI-8226 leukemia
T-47D breast = tested on: T-47D breast
MALME-3M melanoma = tested on: MALME-3M melanoma
M14 melanoma = tested on: M14 melanoma
KM12 colon = tested on: KM12 colon
SNB-75 CNS = tested on: SNB-75 CNS
MDA-MB-435 = tested on: MDA-MB-435
HCT-116 colon = tested on: HCT-116 colon
SK-MEL-5 melanoma = tested on: SK-MEL-5 melanoma
SK-MEL-28 melanoma = tested on: SK-MEL-28 melanoma
OVCAR-4 ovarian = tested on: OVCAR-4 ovarian
HOP-62 NSCLC = tested on: HOP-62 NSCLC
SF-268 CNS = tested on: SF-268 CNS
UO-31 renal = tested on: UO-31 renal
CCRF-CEM leukemia = tested on: CCRF-CEM leukemia
786-0 renal = tested on: 786-0 renal
LOX IMVI melanoma = tested on: LOX IMVI melanoma
SF-539 CNS = tested on: SF-539 CNS
IGROV1 ovarian = tested on: IGROV1 ovarian
HS 578T breast = tested on: HS 578T breast
NCI-H460 lung = tested on: NCI-H460 lung
NCI-H522 lung = tested on: NCI-H522 lung
OVCAR-5 ovarian = tested on: OVCAR-5 ovarian
BT-549 breast = tested on: BT-549 breast
EKVX NSCLC = tested on: EKVX NSCLC
DU-145 prostate = tested on: DU-145 prostate
SN12C renal = tested on: SN12C renal
NCI-H23 lung = tested on: NCI-H23 lung
UACC-62 melanoma = tested on: UACC-62 melanoma
COLO 205 colon = tested on: COLO 205 colon
HT29 colon = tested on: HT29 colon
HOP-92 NSCLC = tested on: HOP-92 NSCLC
NCI-H226 lung = tested on: NCI-H226 lung
A498 renal = tested on: A498 renal
SF-295 CNS = tested on: SF-295 CNS
PC-3 prostate = tested on: PC-3 prostate
SK-MEL-2 melanoma = tested on: SK-MEL-2 melanoma
TK-10 renal = tested on: TK-10 renal
NCI/ADR-RES ovarian = tested on: NCI/ADR-RES ovarian
SW-620 colon = tested on: SW-620 colon
RXF 393 renal = tested on: RXF 393 renal
OVCAR-8 ovarian = tested on: OVCAR-8 ovarian
CAKI-1 renal = tested on: CAKI-1 renal
HL-60(TB) leukemia = tested on: HL-60(TB) leukemia
ACHN renal = tested on: ACHN renal
K-562 leukemia = tested on: K-562 leukemia
M19-MEL melanoma = tested on: M19-MEL melanoma
DLD-1 colon = tested on: DLD-1 colon
KM20L2 colon = tested on: KM20L2 colon
LXFL 529 NSCLC = tested on: LXFL 529 NSCLC
DMS 114 small cell lung = tested on: DMS 114 small cell lung
HOP-18 NSCLC = tested on: HOP-18 NSCLC
HCC-2998 colon = tested on: HCC-2998 colon
SNB-78 CNS = tested on: SNB-78 CNS
DMS 273 small cell lung = tested on: DMS 273 small cell lung
XF 498 CNS = tested on: XF 498 CNS

Measured: TGI

S=c1[nH]nc(SCc2ccccc2Cl)c2[nH]cnc12
not listed: M19-MEL melanoma | DLD-1 colon | KM20L2 colon | LXFL 529 NSCLC | DMS 114 small cell lung | HOP-18 NSCLC | HCC-2998 colon | SNB-78 CNS | DMS 273 small cell lung | XF 498 CNS
> 100 µM: all other assays above

COc1ccc(/C=C/c2cnc3ccccc3n2)cc1OC
69.5 µM: NCI-H522 lung
not listed: SNB-19 CNS | M19-MEL melanoma | DLD-1 colon | KM20L2 colon | LXFL 529 NSCLC | DMS 114 small cell lung | HOP-18 NSCLC | HCC-2998 colon | SNB-78 CNS | DMS 273 small cell lung | XF 498 CNS
> 100 µM: all other assays above

COc1cccc2c1[C@]1(O)C(O)CCCC21 (some centres undefined)
not listed: SR leukemia | MDA-MB-231 breast | MCF7 breast | MDA-N | T-47D breast | MDA-MB-435 | HS 578T breast | BT-549 breast | EKVX NSCLC | DU-145 prostate | HOP-92 NSCLC | PC-3 prostate | NCI/ADR-RES ovarian | HL-60(TB) leukemia | XF 498 CNS
> 100 µM: all other assays above

CC1OC=CC(=O)C1O (centres undefined)
not listed: SNB-19 CNS | MDA-MB-231 breast | MCF7 breast | MDA-N | RPMI-8226 leukemia | T-47D breast | MDA-MB-435 | HCT-116 colon | SF-268 CNS | 786-0 renal | HS 578T breast | BT-549 breast | DU-145 prostate | COLO 205 colon | NCI-H226 lung | A498 renal | PC-3 prostate | NCI/ADR-RES ovarian | CAKI-1 renal | DMS 114 small cell lung | HOP-18 NSCLC | DMS 273 small cell lung
> 100 µM: all other assays above
